Entries after “also recorded” stand apart in the source; their conditions may differ.
Tests used:
UM-C4 colon tumor cells = assay: UM-C4 xenograft, combination with fluorouracil; assay type: in vivo, NOD/SCID mice; conditions: day 46
Description: In certain embodiments, anti-DLL4 antibodies were analyzed in combination with chemotherapy for the ability to reduce growth of UM-C4 colon tumor cells in vivo. Dissociated UM-C4 cells (10,000 per animal) were injected subcutaneously into the right flank region of 6-8 week old NOD/SCID mice. The day after tumor cell injection, animals were injected intraperitoneal (i.p.) with 10 mg/kg murine 21M18 anti-DLL4 antibodies or PBS two times per week for the duration of the experiment with or without concurrent treatment with the anti-metabolite chemotherapy agent fluorouracil (5-FU) administered one time per week. Tumor growth was monitored weekly until growth was detected, after which point tumor growth was measured twice weekly for a total of 8 weeks.

OMP-C8 tumor cells = assay: OMP-C8 colon tumor xenograft growth prevention, combination with Irinotecan; assay type: in vivo, NOD/SCID mice; conditions: 21M18 10 mg/kg twice per week; Irinotecan 7.5 mg/kg weekly; n=10 per group
Description: In certain embodiments, anti-DLL4 antibodies were tested in combination with the chemotherapeutic Irinotecan. In some embodiments, dissociated OMP-C8 tumor cells (10,000 per animal) were injected subcutaneously into the right flank region of 6-8 week old NOD/SCID mice. The day after tumor cell injection, animals were injected intraperitoneal (i.p.) with 10 mg/kg murine 21M18 anti-DLL4 antibodies or control antibody two times per week for the duration of the experiment with or without concurrent treatment with the chemotherapy agent Irinotecan administered one time per week at a dosage of 7.5 mg/kg. Tumor growth was monitored weekly until growth was detected, after which point tumor growth was measured twice weekly. […] In certain embodiments, humanized H7L2 21M18 anti-DLL4 antibodies were tested in combination with Irinotecan. In some embodiments, dissociated C8 tumor cells (10,000 per animal) were injected subcutaneously into the right flank region of 6-8 week old NOD/SCID mice. […] Tumor growth was monitored weekly until growth was detected, after which point tumor growth was measured twice weekly.

C8 cells = assay: Established C8 colon tumors, combination with Irinotecan; assay type: in vivo, NOD/SCID mice; conditions: treatment from approximately 60 mm^3; 21M18 10 mg/kg two times per week; Irinotecan 7.5 mg/kg one time per week
Description: In some embodiments, combination anti-DLL4 murine 21M18 and Irinotecan treatment was used to treat established colon tumors. Dissociated C8 cells (10,000 per animal) were injected subcutaneously into the right flank region of 6-8 week old NOD/SCID mice. When the injected cells produced tumors of approximately 60 mm^3, treatment was commenced. Animals were injected intraperitoneal (i.p.) with 10 mg/kg murine 21M18 anti-DLL4 antibodies or a control two times per week for the duration of the experiment with or without concurrent treatment with the chemotherapy agent Irinotecan administered one time per week at a dosage of 7.5 mg/kg.

human DLL4 = human DLL4 (Homo sapiens, UniProt Q9NR61); assay: OMP-C11 tumor cell colonies overlaid with 3T3-DLL4 cells, HES1:ATOH1 expression; assay type: cell-based; set-up: expressed in transfected cells; host or cells: 3T3 cells; conditions: 5 μM
Chain of human DLL4 (Q9NR61 27-685): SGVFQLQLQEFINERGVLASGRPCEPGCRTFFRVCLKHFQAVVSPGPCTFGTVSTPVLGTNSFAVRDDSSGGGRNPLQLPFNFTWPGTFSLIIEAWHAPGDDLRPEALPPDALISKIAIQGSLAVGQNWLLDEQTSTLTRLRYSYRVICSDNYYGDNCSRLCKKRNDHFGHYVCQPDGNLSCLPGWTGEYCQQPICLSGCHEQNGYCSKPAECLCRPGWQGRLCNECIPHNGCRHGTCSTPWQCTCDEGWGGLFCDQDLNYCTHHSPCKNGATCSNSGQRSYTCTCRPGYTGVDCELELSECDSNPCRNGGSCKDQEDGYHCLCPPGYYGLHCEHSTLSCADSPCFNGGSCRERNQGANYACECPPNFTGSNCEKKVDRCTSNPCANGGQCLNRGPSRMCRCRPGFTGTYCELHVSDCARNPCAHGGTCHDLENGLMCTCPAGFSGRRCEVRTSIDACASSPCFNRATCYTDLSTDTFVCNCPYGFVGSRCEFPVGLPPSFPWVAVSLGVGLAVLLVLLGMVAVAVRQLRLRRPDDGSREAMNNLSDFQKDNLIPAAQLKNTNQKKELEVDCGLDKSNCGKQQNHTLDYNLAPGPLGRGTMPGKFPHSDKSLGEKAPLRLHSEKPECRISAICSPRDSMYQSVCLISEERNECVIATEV
Description: In some embodiments, mouse lineage-depleted OMP-C11 tumor cell colonies were established using culture conditions known to maintain tumorigenic cells in vitro. These tumor cell colonies were overlaid with 3T3 cells without (3T3) or including human DLL4 (DLL4) overexpressed on the cell surface in the presence or absence of 10 μg/mL murine 21M18 or 5 μM gamma-secretase inhibitor (GSI; i.e. DBZ). A no overlay control was also included.

In the case of `O=c1[nH]cc(F)c(=O)[nH]1` [5-FU, fluorouracil, reference compound], the “tumor size compared to control” value (UM-C4 colon tumor cells) is reported as “reduced tumor size”.
In the case of `CCc1c2c(nc3ccc(OC(=O)N4CCC(N5CCCCC5)CC4)cc13)-c1cc3c(c(=O)n1C2)COC(=O)[C@]3(O)CC` [Irinotecan], the “tumor growth after treatment cessation on day 56” value (OMP-C8 tumor cells) is reported as “tumor growth continued or accelerated in most animals; also recorded: growth continued after cessation of treatment on day 56 (* arrow) in all but two treated animals” and the “growth of established colon tumors” value (C8 cells) is reported as “reduced tumor volume”.
With `C[C@H](NC(=O)Cc1cc(F)cc(F)c1)C(=O)N[C@@H]1C(=O)N(C)c2ccccc2-c2ccccc21` [GSI, reference compound] the “DLL4-induced Notch target gene changes (ratio of HES1:ATOH1)” value (human DLL4) was “inhibited DLL4-induced Notch target gene changes”.
